System: 997726-040-R-J2-PDC tumor spheroids, viability
Experiment: Anticancer human tumor 997726-040-R-J2-PDC patient-derived squamous cell lung carcinoma cell line growth inhibition [PI3K]
Conditions: spheroids with HUVEC and MSC; for IC50: curve of first compound; for viability, T/C: stronger effect = lower value
From the text: Combinatorial screen of targeted agents with the PI3K inhibitors inavolisib, alpelisib, duvelisib, and copanlisib in multi-cell type tumor spheroids
A high-throughput screen of multi-cell type tumor spheroids was designed to identify active combinations of targeted small molecules and PI3K pathway inhibitors. Complex spheroids include a stromal component modeled by human endothelial cells (HUVEC) and fibroblasts modeled by human mesenchymal stem cells (MSCs). The concentration ranges selected for each drug and investigational agent were based upon clinically achievable concentrations if the clinical Cmax of the agent was known.
Compounds. The drugs and investigational agents: inavolisib (NSC800729), alpelisib (NSC765974), duvelisib (NSC772469), copanlisib (NSC816437), ipatasertib (NSC767898), afuresertib (NSC778305), talazoparib (NSC767125), sapanisertib (NSC764658), selumetinib (NSC741078), tovorafenib (DAY101, NSC766906), vemurafenib (NSC761431), ravoxertinib (NSC781343), sotorasib (NSC818433), MRTX1133 (NSC 836407), abemaciclib (NSC 768073), palbociclib (NSC758247), venetoclax (NSC 766270), SY5609 (NSC837396), enzalutamide (NSC755605), and darolutamide (NSC825331), were obtained from the National Cancer Institute (NCI) Developmental Therapeutics Program Chemical Repository. The FDA-approved anticancer drug set is available from the NCI Developmental Therapeutics Program. […] The stock solutions were prepared in dimethyl sulfoxide (DMSO, Sigma-Aldrich, St. Louis, MO, cat. D2650) at 800-fold the tested concentration and stored at -70 degrees C prior to their use. All drugs and investigational agents were tested over a range starting from a high concentration at or near the clinical Cmax and decreasing in half-log increments. If the clinical Cmax for an agent had not been determined, the highest concentration tested was 10 microM.
Cell Culture. All cells were maintained in an incubator at 37 degrees C and 5% CO2 with 95% humidity. The PDC lines were cultured according to standard operating procedures established by the NCI PDMR (https://pdmr.cancer.gov/sops/default.htm). All PDCs were thawed and cultured in Matrigel-coated flasks prepared with a working solution of 1X Ham's F-12 nutrient mix, without supplementation (Invitrogen, Waltham, MA, cat. 11765054), 100 U/mL penicillin-streptomycin (Invitrogen, cat. 15140122), and 2.5% Matrigel (Corning Inc., Corning, NY, cat. 354248) for the first three passages. The 354836-022-R-J1-PDC, 475296-252-R-J1-PDC, and 997726-040-R-J2-PDC lines were cultured in 6A media, which includes advanced DMEM/F-12 (Thermo Fisher Scientific, cat. 12634028), 10 mM HEPES (Thermo Fisher Scientific, cat. 15630080), 1X GlutaMAX supplement (Thermo Fisher Scientific, cat. 35050061), 0.1 mg/mL primocin (InvivoGen, San Diego, CA, cat. ant-pm-2), 10% defined fetal bovine serum, heat inactivated (HyClone Laboratories Inc., Logan, UT, cat. SH30070.03HI), 50% L-WRN conditioned media (ATCC, cat. CRL-3276), 1.25 mM N-Acetyl-L-cysteine (Sigma-Aldrich, cat. A9165), 10 mM nicotinamide (Sigma-Aldrich, cat. N0636), 1X B-27 supplement (Thermo Fisher Scientific, cat. 17504044), 1X N-2 supplement (Thermo Fisher Scientific, cat. 17502048), and 10 microM Y-27632 dihydrochloride (Tocris Bioscience, Bristol, United Kingdom, cat. 1254). The 624824-186-R-J2-PDC line was cultured in 6C/Colon 1B media, which includes all 6A media components plus 50 ng/mL human EGF recombinant protein (Thermo Fisher Scientific, cat. PHG0311). […]
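Further: spheroids exposed to compounds for seven days before readout.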

## Cn1cnc2c(F)c(Nc3ccc(Br)cc3Cl)c(C(=O)NOCCO)cc21 + CC(Nc1ccc2c(c1)OCCn1cc(N3C(=O)OCC3C(F)F)nc1-2)C(N)=O
Second compound 0.00316 µM
  IC50: 154 nM
Second compound 0.01 µM
  IC50: 82.4 nM
Second compound 0.0316 µM
  IC50: 13.8 nM
Second compound 0.1 µM
  IC50: < 9.49 nM
Second compound 0.316 µM
  IC50: < 9.49 nM
Second compound 1 µM
  IC50: < 9.49 nM
Second compound 0.00316 µM, first compound 0.00949 µM
  viability, T/C: 70.5%
Second compound 0.00316 µM, first compound 0.03 µM
  viability, T/C: 65%
Second compound 0.00316 µM, first compound 0.0949 µM
  viability, T/C: 58.1%
Second compound 0.00316 µM, first compound 0.3 µM
  viability, T/C: 39.1%
Second compound 0.00316 µM, first compound 0.949 µM
  viability, T/C: 35.8%
Second compound 0.00316 µM, first compound 3 µM
  viability, T/C: 29.1%
Second compound 0.01 µM, first compound 0.00949 µM
  viability, T/C: 62%
Second compound 0.01 µM, first compound 0.03 µM
  viability, T/C: 59%
Second compound 0.01 µM, first compound 0.0949 µM
  viability, T/C: 47.6%
Second compound 0.01 µM, first compound 0.3 µM
  viability, T/C: 40.8%
Second compound 0.01 µM, first compound 0.949 µM
  viability, T/C: 39.2%
Second compound 0.01 µM, first compound 3 µM
  viability, T/C: 30.9%
Second compound 0.0316 µM, first compound 0.00949 µM
  viability, T/C: 49.1%
Second compound 0.0316 µM, first compound 0.03 µM
  viability, T/C: 50.8%
Second compound 0.0316 µM, first compound 0.0949 µM
  viability, T/C: 42.2%
Second compound 0.0316 µM, first compound 0.3 µM
  viability, T/C: 30.2%
Second compound 0.0316 µM, first compound 0.949 µM
  viability, T/C: 28.2%
Second compound 0.0316 µM, first compound 3 µM
  viability, T/C: 21.1%
Second compound 0.1 µM, first compound 0.00949 µM
  viability, T/C: 36.6%
Second compound 0.1 µM, first compound 0.03 µM
  viability, T/C: 42%
Second compound 0.1 µM, first compound 0.0949 µM
  viability, T/C: 33%
Second compound 0.1 µM, first compound 0.3 µM
  viability, T/C: 22.1%
Second compound 0.1 µM, first compound 0.949 µM
  viability, T/C: 21%
Second compound 0.1 µM, first compound 3 µM
  viability, T/C: 14%
Second compound 0.316 µM, first compound 0.00949 µM
  viability, T/C: 32.1%
Second compound 0.316 µM, first compound 0.03 µM
  viability, T/C: 27.9%
Second compound 0.316 µM, first compound 0.0949 µM
  viability, T/C: 23.7%
Second compound 0.316 µM, first compound 0.3 µM
  viability, T/C: 20.5%
Second compound 0.316 µM, first compound 0.949 µM
  viability, T/C: 14%
Second compound 0.316 µM, first compound 3 µM
  viability, T/C: 15%
Second compound 1 µM, first compound 0.00949 µM
  viability, T/C: 24.5%
Second compound 1 µM, first compound 0.03 µM
  viability, T/C: 22.4%
Second compound 1 µM, first compound 0.0949 µM
  viability, T/C: 21.7%
Second compound 1 µM, first compound 0.3 µM
  viability, T/C: 20.3%
Second compound 1 µM, first compound 0.949 µM
  viability, T/C: 15%
Second compound 1 µM, first compound 3 µM
  viability, T/C: 12.9%
